According to the NIST ThermoML archive (doi:10.1016/j.jct.2017.07.008):
Several values for one entry are separate records, joined by “and”; a condition that tells them apart may be missing. Equal values may be shown once.

Details: for surface tension liquid-gas: Drop volume; for viscosity / speed of sound / mass density: Liquid; for viscosity: Capillary tube (Ostwald / Ubbelohde) method; for speed of sound: Frequency=3 MHz, Single path-length method; for mass density: Vibrating tube method

O=Cc1cccs1 [2-thiophenealdehyde]
Details	surface tension liquid-gas [mN/m]
283.15 K	47.82
285.65 K	47.52
288.15 K	47.22
290.65 K	46.92
293.15 K	46.6
295.65 K	46.27
298.15 K	45.99
300.65 K	45.68
303.15 K	45.4
305.65 K	45.08
308.15 K	44.75
310.65 K	44.48
313.15 K	44.17

Details	mass density	speed of sound [m/s]	viscosity [mPa·s]
283.15 K, 100 kPa	1232.44 kg/m3 and 1232.47 kg/m3	1512.8	2.796
283.15 K, 2000 kPa	1233.56 kg/m3	–	–
283.15 K, 5000 kPa	1235.26 kg/m3	–	–
283.15 K, 7000 kPa	1236.39 kg/m3	–	–
283.15 K, 10000 kPa	1238.06 kg/m3	–	–
283.15 K, 15000 kPa	1240.76 kg/m3	–	–
283.15 K, 20000 kPa	1243.38 kg/m3	–	–
283.15 K, 25000 kPa	1245.94 kg/m3	–	–
283.15 K, 30000 kPa	1248.47 kg/m3	–	–
283.15 K, 35000 kPa	1250.93 kg/m3	–	–
283.15 K, 40000 kPa	1253.33 kg/m3	–	–
283.15 K, 45000 kPa	1255.69 kg/m3	–	–
283.15 K, 50000 kPa	1258.02 kg/m3	–	–
283.15 K, 55000 kPa	1260.26 kg/m3	–	–
283.15 K, 60000 kPa	1262.44 kg/m3	–	–
283.15 K, 65000 kPa	1264.58 kg/m3	–	–
285.65 K, 100 kPa	1229.92 kg/m3	1504.3	2.661
288.15 K, 100 kPa	1227.39 kg/m3	1495.9	2.513
288.15 K, 2000 kPa	1228.51 kg/m3	–	–
288.15 K, 5000 kPa	1230.24 kg/m3	–	–
288.15 K, 7000 kPa	1231.38 kg/m3	–	–
288.15 K, 10000 kPa	1233.07 kg/m3	–	–
288.15 K, 15000 kPa	1235.82 kg/m3	–	–
288.15 K, 20000 kPa	1238.51 kg/m3	–	–
288.15 K, 25000 kPa	1241.13 kg/m3	–	–
288.15 K, 30000 kPa	1243.69 kg/m3	–	–
288.15 K, 35000 kPa	1246.2 kg/m3	–	–
288.15 K, 40000 kPa	1248.64 kg/m3	–	–
288.15 K, 45000 kPa	1251.04 kg/m3	–	–
288.15 K, 50000 kPa	1253.38 kg/m3	–	–
288.15 K, 55000 kPa	1255.68 kg/m3	–	–
288.15 K, 60000 kPa	1257.93 kg/m3	–	–
288.15 K, 65000 kPa	1260.14 kg/m3	–	–
290.65 K, 100 kPa	1224.88 kg/m3	1487.4	2.386
293.15 K, 100 kPa	1222.35 kg/m3 and 1222.36 kg/m3	1479.1	2.267
293.15 K, 2000 kPa	1223.5 kg/m3	–	–
293.15 K, 5000 kPa	1225.27 kg/m3	–	–
293.15 K, 7000 kPa	1226.44 kg/m3	–	–
293.15 K, 10000 kPa	1228.16 kg/m3	–	–
293.15 K, 15000 kPa	1230.98 kg/m3	–	–
293.15 K, 20000 kPa	1233.73 kg/m3	–	–
293.15 K, 25000 kPa	1236.41 kg/m3	–	–
293.15 K, 30000 kPa	1239.02 kg/m3	–	–
293.15 K, 35000 kPa	1241.57 kg/m3	–	–
293.15 K, 40000 kPa	1244.07 kg/m3	–	–
293.15 K, 45000 kPa	1246.51 kg/m3	–	–
293.15 K, 50000 kPa	1248.9 kg/m3	–	–
293.15 K, 55000 kPa	1251.24 kg/m3	–	–
293.15 K, 60000 kPa	1253.53 kg/m3	–	–
293.15 K, 65000 kPa	1255.77 kg/m3	–	–
295.65 K, 100 kPa	1219.84 kg/m3	1470.8	2.162
298.15 K, 100 kPa	1217.32 kg/m3	1462.4	2.053
298.15 K, 2000 kPa	1218.49 kg/m3	–	–
298.15 K, 5000 kPa	1220.31 kg/m3	–	–
298.15 K, 7000 kPa	1221.5 kg/m3	–	–
298.15 K, 10000 kPa	1223.27 kg/m3	–	–
298.15 K, 15000 kPa	1226.15 kg/m3	–	–
298.15 K, 20000 kPa	1228.95 kg/m3	–	–
298.15 K, 25000 kPa	1231.69 kg/m3	–	–
298.15 K, 30000 kPa	1234.36 kg/m3	–	–
298.15 K, 35000 kPa	1236.96 kg/m3	–	–
298.15 K, 40000 kPa	1239.51 kg/m3	–	–
298.15 K, 45000 kPa	1242 kg/m3	–	–
298.15 K, 50000 kPa	1244.43 kg/m3	–	–
298.15 K, 55000 kPa	1246.81 kg/m3	–	–
298.15 K, 60000 kPa	1249.14 kg/m3	–	–
298.15 K, 65000 kPa	1251.43 kg/m3	–	–
300.65 K, 100 kPa	1214.8 kg/m3	1454	1.96
303.15 K, 100 kPa	1212.28 kg/m3 and 1212.29 kg/m3	1445.7	1.875
303.15 K, 2000 kPa	1213.48 kg/m3	–	–
303.15 K, 5000 kPa	1215.34 kg/m3	–	–
303.15 K, 7000 kPa	1216.56 kg/m3	–	–
303.15 K, 10000 kPa	1218.37 kg/m3	–	–
303.15 K, 15000 kPa	1221.32 kg/m3	–	–
303.15 K, 20000 kPa	1224.19 kg/m3	–	–
303.15 K, 25000 kPa	1226.98 kg/m3	–	–
303.15 K, 30000 kPa	1229.71 kg/m3	–	–
303.15 K, 35000 kPa	1232.36 kg/m3	–	–
303.15 K, 40000 kPa	1234.96 kg/m3	–	–
303.15 K, 45000 kPa	1237.49 kg/m3	–	–
303.15 K, 50000 kPa	1239.97 kg/m3	–	–
303.15 K, 55000 kPa	1242.4 kg/m3	–	–
303.15 K, 60000 kPa	1244.77 kg/m3	–	–
303.15 K, 65000 kPa	1247.09 kg/m3	–	–
305.65 K, 100 kPa	1209.76 kg/m3	1437.3	1.797
308.15 K, 100 kPa	1207.25 kg/m3	1429	1.728
308.15 K, 2000 kPa	1208.47 kg/m3	–	–
308.15 K, 5000 kPa	1210.38 kg/m3	–	–
308.15 K, 7000 kPa	1211.63 kg/m3	–	–
308.15 K, 10000 kPa	1213.48 kg/m3	–	–
308.15 K, 15000 kPa	1216.49 kg/m3	–	–
308.15 K, 20000 kPa	1219.43 kg/m3	–	–
308.15 K, 25000 kPa	1222.28 kg/m3	–	–
308.15 K, 30000 kPa	1225.06 kg/m3	–	–
308.15 K, 35000 kPa	1227.77 kg/m3	–	–
308.15 K, 40000 kPa	1230.42 kg/m3	–	–
308.15 K, 45000 kPa	1233 kg/m3	–	–
308.15 K, 50000 kPa	1235.53 kg/m3	–	–
308.15 K, 55000 kPa	1238 kg/m3	–	–
308.15 K, 60000 kPa	1240.41 kg/m3	–	–
308.15 K, 65000 kPa	1242.78 kg/m3	–	–
310.65 K, 100 kPa	1204.73 kg/m3	1420.7	1.654
313.15 K, 100 kPa	1202.21 kg/m3	1412.4	1.59
313.15 K, 2000 kPa	1203.46 kg/m3	–	–
313.15 K, 5000 kPa	1205.41 kg/m3	–	–
313.15 K, 7000 kPa	1206.7 kg/m3	–	–
313.15 K, 10000 kPa	1208.59 kg/m3	–	–
313.15 K, 15000 kPa	1211.67 kg/m3	–	–
313.15 K, 20000 kPa	1214.67 kg/m3	–	–
313.15 K, 25000 kPa	1217.59 kg/m3	–	–
313.15 K, 30000 kPa	1220.43 kg/m3	–	–
313.15 K, 35000 kPa	1223.19 kg/m3	–	–
313.15 K, 40000 kPa	1225.89 kg/m3	–	–
313.15 K, 45000 kPa	1228.52 kg/m3	–	–
313.15 K, 50000 kPa	1231.1 kg/m3	–	–
313.15 K, 55000 kPa	1233.61 kg/m3	–	–
313.15 K, 60000 kPa	1236.07 kg/m3	–	–
